Measured values from ChEMBL document CHEMBL3588857, “Peroxisome proliferator-activated receptor gamma (PPARγ) has multiple binding points that accommodate ligands in various conformations: Structurally similar PPARγ partial agonists bind to PPARγ LBD in different conformations” (Bioorg Med Chem Lett, 2015).
Calls of active or inactive are those of the source. The rule behind the calls is not given here.

Legend:
[1] = target: T1, Peroxisome proliferator-activated receptor gamma (Homo sapiens) (UniProt P37231); assay: Partial agonist activity at PPARgamma (unknown origin) assessed as induction of receptor transactivation at 0.1 to 10 uM relative to 10 uM pioglitazone
T1 sequence (whole entry): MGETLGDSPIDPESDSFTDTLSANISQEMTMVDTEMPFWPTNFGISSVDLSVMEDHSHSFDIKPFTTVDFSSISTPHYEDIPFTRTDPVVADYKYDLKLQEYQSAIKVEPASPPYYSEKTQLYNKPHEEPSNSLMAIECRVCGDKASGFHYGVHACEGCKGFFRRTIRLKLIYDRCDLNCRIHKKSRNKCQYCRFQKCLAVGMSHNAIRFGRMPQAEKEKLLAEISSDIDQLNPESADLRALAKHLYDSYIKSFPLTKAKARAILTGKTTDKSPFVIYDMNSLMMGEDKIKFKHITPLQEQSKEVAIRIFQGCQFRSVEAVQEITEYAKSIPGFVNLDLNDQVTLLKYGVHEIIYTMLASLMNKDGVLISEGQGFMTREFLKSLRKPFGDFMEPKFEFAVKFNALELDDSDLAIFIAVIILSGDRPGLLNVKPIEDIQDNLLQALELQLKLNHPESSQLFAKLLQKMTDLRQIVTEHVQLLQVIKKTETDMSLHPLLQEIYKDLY

[2] = target: T1, Peroxisome proliferator-activated receptor gamma (Homo sapiens); assay: Antagonist activity at PPARgamma (unknown origin) assessed as inhibition of 10 uM pioglitazone-induced receptor transactivation at 0.1 to 10 uM

- Activity [1]: Active
- inhibition [2]: Dose-dependent effect
Structure (SMILES): CCCOc1ccc(C(=O)NS(=O)(=O)Cc2ccccc2)cc1CNC(=O)c1ccc(-c2ncccn2)cc1
